Consider 43 compounds from patent US8969386B2, “Modulators of CFTR” (Vertex Pharmaceuticals Incorporated, priority 2007, dated 2015).

The EC50 is the concentration that produces a half-maximal response.

The assay has as its target T1, ΔF508-CFTR (Homo sapiens, UniProt P13569, DEL508-508).
T1 construct: expressed in transfected cells
Kind of assay: ΔF508-CFTR correction, membrane potential optical (FRET/VIPR) assay. The class given is cell-based. As to conditions: NIH3T3 mouse fibroblasts stably expressing ΔF508-CFTR; for Emax: read-out: % Efficacy. An excerpt:
Assays for Detecting and Measuring ΔF508-CFTR Correction Properties of Compounds
Membrane potential optical methods for assaying ΔF508-CFTR modulation properties of compounds
The optical membrane potential assay utilized voltage-sensitive FRET sensors described by Gonzalez and Tsien (See Gonzalez, J. E. and R. Y. Tsien (1995) “Voltage sensing by fluorescence resonance energy transfer in single cells” Biophys J 69(4): 1272-80, and Gonzalez, J. E. and R. Y. Tsien (1997) “Improved indicators of cell membrane potential that use fluorescence resonance energy transfer” Chem Biol 4(4): 269-77) in combination with instrumentation for measuring fluorescence changes such as the Voltage/Ion Probe Reader (VIPR) (See Gonzalez, J. E., K. Oades, et al. (1999) “Cell-based assays and instrumentation for screening ion-channel targets” Drug Discov Today 4(9): 431-439).
These voltage sensitive assays are based on the change in fluorescence resonant energy transfer (FRET) between the membrane-soluble, voltage-sensitive dye, DiSBAC2(3), and a fluorescent phospholipid, CC2-DMPE, which is attached to the outer leaflet of the plasma membrane and acts as a FRET donor. Changes in membrane potential (Vm) cause the negatively charged DiSBAC2(3) to redistribute across the plasma membrane and the amount of energy transfer from CC2-DMPE changes accordingly. The changes in fluorescence emission were monitored using VIPR™ II, which is an integrated liquid handler and fluorescent detector designed to conduct cell-based screens in 96- or 384-well microtiter plates.
1. Identification of Correction Compounds
To identify small molecules that correct the trafficking defect associated with ΔF508-CFTR; a single-addition HTS assay format was developed. The cells were incubated in serum-free medium for 16 hrs at 37° C. in the presence or absence (negative control) of test compound. As a positive control, cells plated in 384-well plates were incubated for 16 hrs at 27° C. to “temperature-correct” ΔF508-CFTR. The cells were subsequently rinsed 3× with Krebs Ringers solution and loaded with the voltage-sensitive dyes. To activate ΔF508-CFTR, 10 μM forskolin and the CFTR potentiator, genistein (20 μM), were added along with Cl^−-free medium to each well. The addition of Cl^−-free medium promoted Cl^− efflux in response to ΔF508-CFTR activation and the resulting membrane depolarization was optically monitored using the FRET-based voltage-sensor dyes.
NIH3T3 mouse fibroblasts stably expressing ΔF508-CFTR are used for optical measurements of membrane potential. The cells are maintained at 37° C. in 5% CO2 and 90% humidity in Dulbecco's modified Eagle's medium supplemented with 2 mM glutamine, 10% fetal bovine serum, 1×NEAA, β-ME, 1× pen/strep, and 25 mM HEPES in 175 cm^2 culture flasks. For all optical assays, the cells were seeded at 30,000/well in 384-well matrigel-coated plates and cultured for 2 hrs at 37° C. before culturing at 27° C. for 24 hrs for the potentiator assay. For the correction assays, the cells are cultured at 27° C. or 37° C. with and without compounds for 16-24 hours Electrophysiological Assays for assaying ΔF508-CFTR modulation properties of compounds

T1 sequence (P13569 with tags, fused parts or gaps DEL508-508): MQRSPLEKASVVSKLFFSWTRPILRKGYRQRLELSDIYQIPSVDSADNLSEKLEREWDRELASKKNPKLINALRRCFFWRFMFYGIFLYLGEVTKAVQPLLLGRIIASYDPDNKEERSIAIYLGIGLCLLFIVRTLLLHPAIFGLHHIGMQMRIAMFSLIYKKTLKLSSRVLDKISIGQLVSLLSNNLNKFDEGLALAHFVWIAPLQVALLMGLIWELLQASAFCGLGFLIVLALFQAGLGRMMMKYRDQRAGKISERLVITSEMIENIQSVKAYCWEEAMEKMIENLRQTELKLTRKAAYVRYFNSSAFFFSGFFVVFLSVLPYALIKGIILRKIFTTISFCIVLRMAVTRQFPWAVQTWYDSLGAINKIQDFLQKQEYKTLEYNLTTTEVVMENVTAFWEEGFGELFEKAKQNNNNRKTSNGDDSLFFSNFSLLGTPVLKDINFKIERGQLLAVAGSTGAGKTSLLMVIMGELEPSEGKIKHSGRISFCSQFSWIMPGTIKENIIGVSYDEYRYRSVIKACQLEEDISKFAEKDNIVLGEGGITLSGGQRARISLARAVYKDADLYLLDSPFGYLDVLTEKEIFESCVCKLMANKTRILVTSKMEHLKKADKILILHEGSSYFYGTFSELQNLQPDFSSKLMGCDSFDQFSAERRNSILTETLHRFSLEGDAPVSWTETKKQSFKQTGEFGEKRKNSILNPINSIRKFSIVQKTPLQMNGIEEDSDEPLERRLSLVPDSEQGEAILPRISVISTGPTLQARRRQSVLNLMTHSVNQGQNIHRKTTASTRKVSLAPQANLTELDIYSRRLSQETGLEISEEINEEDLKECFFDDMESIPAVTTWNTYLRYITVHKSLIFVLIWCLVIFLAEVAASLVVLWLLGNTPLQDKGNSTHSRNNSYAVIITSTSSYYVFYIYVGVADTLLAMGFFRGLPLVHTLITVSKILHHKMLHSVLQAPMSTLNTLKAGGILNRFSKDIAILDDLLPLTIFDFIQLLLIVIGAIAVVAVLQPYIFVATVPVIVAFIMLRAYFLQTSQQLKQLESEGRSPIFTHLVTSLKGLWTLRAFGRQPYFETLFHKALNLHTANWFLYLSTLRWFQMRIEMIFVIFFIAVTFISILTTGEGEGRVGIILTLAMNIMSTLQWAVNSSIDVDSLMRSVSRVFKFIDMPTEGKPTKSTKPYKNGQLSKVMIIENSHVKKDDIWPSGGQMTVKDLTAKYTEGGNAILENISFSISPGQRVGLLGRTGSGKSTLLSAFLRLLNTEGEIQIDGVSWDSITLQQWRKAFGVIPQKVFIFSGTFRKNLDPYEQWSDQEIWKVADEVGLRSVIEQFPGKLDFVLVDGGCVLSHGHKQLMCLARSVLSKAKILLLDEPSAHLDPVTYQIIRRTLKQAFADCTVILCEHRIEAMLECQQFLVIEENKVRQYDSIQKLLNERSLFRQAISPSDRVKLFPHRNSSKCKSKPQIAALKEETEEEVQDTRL

Regarding `COc1ncc(-c2nc(NC(=O)C3(c4ccc5c(c4)OC(F)(F)O5)CC3)ccc2C)cc1F` [Compound 43], the EC50 was less than 2000 nM and the Emax is greater than 100%.
Turning to `Cc1ccc(NC(=O)C2(c3ccc4c(c3)OC(F)(F)O4)CC2)nc1-c1cc[nH]c(=O)c1` [Compound 44], the concentration for a half-maximal effect (EC50) is less than 2000 nM and the Emax fell in the range of 50 to 100%.
Taken in the same sequence, the figures for `COc1ccc(C2(C(=O)Nc3ccc(C)c(-c4ccnc(OC)c4)n3)CC2)cc1` [Compound 45] were less than 2000 nM and greater than 100%.
Taken in the same sequence, the figures for `Cc1ccc(NC(=O)C2(c3ccc4c(c3)OC(F)(F)O4)CC2)nc1-c1ccc[nH]c1=O` [Compound 46] were less than 2000 nM and 50 to 100%.
Taken in the same sequence, the figures for `Cc1ccc(NC(=O)C2(c3ccc4c(c3)OC(F)(F)O4)CC2)nc1-c1ccn(CC(=O)O)c(=O)c1` [Compound 47] were less than 2000 nM and less than 50%.
As for `COc1ncccc1-c1cc(C)cc(NC(=O)C2(c3ccc4c(c3)OC(F)(F)O4)CC2)n1` [Compound 48], the EC50 was less than 2000 nM and the Emax was greater than 100%.
Taken in the same sequence, the figures for `Cc1ccc(NC(=O)C2(c3ccc4c(c3)OCO4)CC2)nc1-c1ccc(=O)[nH]c1` [Compound 49] were less than 2000 nM and 50 to 100%.
On to `Cc1ccc(NC(=O)C2(c3ccc4c(c3)OC(F)(F)O4)CC2)nc1-c1cccc(=O)[nH]1` [Compound 50], for which the concentration giving a half-maximal response (EC50) was less than 2000 nM and the Emax fell in the range of 50 to 100%.
Taken in the same sequence, the figures for `O=C(Nc1cccc(-c2ccc[nH]c2=O)n1)C1(c2ccc3c(c2)OC(F)(F)O3)CC1` [Compound 51] were less than 2000 nM and greater than 100%.
Taken in the same sequence, the figures for `Cc1ccc(NC(=O)C2(c3ccc4c(c3)OC(F)(F)O4)CC2)nc1-c1ccc(=O)n(C)c1` [Compound 52] were less than 2000 nM and 50 to 100%.
Taken in the same sequence, the figures for `COc1ncc(-c2nc(NC(=O)C3(c4ccc5c(c4)OC(F)(F)O5)CC3)ccc2C)cc1C(=O)O` [Compound 53] were less than 2000 nM and greater than 100%.
`Cc1ncc(NC(=O)C2(c3ccc4c(c3)OC(F)(F)O4)CC2)nc1-c1ccc[nH]c1=O` [Compound 54]: the EC50 is less than 2000 nM and the Emax was in the range of 50 to 100%.
Take `Cc1ncc(NC(=O)C2(c3ccc4c(c3)OC(F)(F)O4)CC2)nc1-c1ccc(=O)[nH]c1` [Compound 55]: the EC50 is less than 2000 nM and the Emax fell in the range of 50 to 100%.
Taken in the same sequence, the figures for `COc1ncccc1-c1nc(NC(=O)C2(c3ccc4c(c3)OC(F)(F)O4)CC2)cc(C)c1C` [Compound 56] were less than 2000 nM and greater than 100%.
Taken in the same sequence, the figures for `COc1ccc(-c2nc(NC(=O)C3(c4ccc5c(c4)OC(F)(F)O5)CC3)cc(C)c2C)cn1` [Compound 57] were less than 2000 nM and greater than 100%.
Taken in the same sequence, the figures for `COc1cc(-c2nc(NC(=O)C3(c4ccc5c(c4)OC(F)(F)O5)CC3)cc(C)c2C)ccn1` [Compound 58] were less than 2000 nM and greater than 100%.
With `Cc1ccc(NC(=O)C2(c3ccc4c(c3)COC4)CC2)nc1-c1c[nH]c(=O)c(C)c1` [Compound 59], the concentration giving a half-maximal response (EC50) was 2000 to 5000 nM and the Emax fell in the range of 50 to 100%.
Turning to `Cc1ccc(NC(=O)C2(c3ccc4c(c3)OCCO4)CC2)nc1-c1c[nH]c(=O)c(C)c1` [Compound 60], the EC50 was less than 2000 nM and the Emax lay within 50 to 100%.
Taken in the same sequence, the figures for `Cc1ccc(NC(=O)C2(c3ccc(Cl)cc3)CC2)nc1-c1c[nH]c(=O)c(C)c1` [Compound 61] were less than 2000 nM and 50 to 100%.
Taken in the same sequence, the figures for `COc1ccc(C2(C(=O)Nc3ccc(C)c(-c4c[nH]c(=O)c(C)c4)n3)CC2)cc1Cl` [Compound 62] were less than 2000 nM and 50 to 100%.
Consider `COc1cccc(C2(C(=O)Nc3ccc(C)c(-c4c[nH]c(=O)c(C)c4)n3)CC2)c1` [Compound 63], for which the EC50 was less than 2000 nM and the Emax is 50 to 100%.
Taken in the same sequence, the figures for `Cc1cc(NC(=O)C2(c3ccc4c(c3)OC(F)(F)O4)CC2)nc(-c2ccn(CCO)c(=O)c2)c1` [Compound 64] were less than 2000 nM and greater than 100%.
Taken in the same sequence, the figures for `Cc1cc(NC(=O)C2(c3ccc4c(c3)OC(F)(F)O4)CC2)nc(-c2ccc(=O)[nH]c2)c1C` [Compound 65] were less than 2000 nM and 50 to 100%.
Consider `Cc1cc(NC(=O)C2(c3ccc4c(c3)OC(F)(F)O4)CC2)nc(-c2ccc[nH]c2=O)c1C` [Compound 66], for which the 50% effective concentration (EC50) was less than 2000 nM and the Emax is greater than 100%.
For the compound `Cc1cc(NC(=O)C2(c3ccc4c(c3)OC(F)(F)O4)CC2)nc(-c2cc[nH]c(=O)c2)c1C` [Compound 67], the EC50 was less than 2000 nM and the Emax was greater than 100%.
In the case of `Cc1cc(NC(=O)C2(c3ccc4c(c3)CCO4)CC2)nc(-c2ccc(=O)[nH]c2)c1` [Compound 68], the concentration giving a half-maximal response (EC50) is less than 2000 nM and the Emax lay in the range of 50 to 100%.
Taken in the same sequence, the figures for `Cc1cc(NC(=O)C2(c3ccc4c(c3)CCO4)CC2)nc(-c2ccc[nH]c2=O)c1` [Compound 69] were less than 2000 nM and 50 to 100%.
Taken in the same sequence, the figures for `Cc1cc(NC(=O)C2(c3ccc4c(c3)CCO4)CC2)nc(-c2cc[nH]c(=O)c2)c1` [Compound 70] were less than 2000 nM and 50 to 100%.
Consider `COc1ncc(-c2nc(NC(=O)C3(c4ccc5c(c4)OC(F)(F)O5)CC3)ccc2C)cc1Cl` [Compound 71], for which the EC50 was less than 2000 nM and the Emax was greater than 100%.
Taken in the same sequence, the figures for `COc1cc(-c2nc(NC(=O)C3(c4ccc5c(c4)OC(F)(F)O5)CC3)ccc2C)cnc1OC` [Compound 72] were less than 2000 nM and greater than 100%.
Taken in the same sequence, the figures for `COc1ncc(-c2nc(NC(=O)C3(c4ccc5c(c4)OC(F)(F)O5)CC3)ccc2C)cc1C(=O)N(C)C` [Compound 73] were less than 2000 nM and 50 to 100%.
Taken in the same sequence, the figures for `Cc1ccc(NC(=O)C2(c3ccc4c(c3)OC(F)(F)O4)CC2)nc1-c1ccc(=O)n(CC(=O)NC#N)c1` [Compound 74] were 2000 to 5000 nM and less than 50%.
Consider `Cc1ccc(NC(=O)C2(c3ccc4c(c3)CCO4)CC2)nc1-c1c[nH]c(=O)c(C)c1` [Compound 76], for which the EC50 was less than 2000 nM and the Emax lay within 50 to 100%.
Taken in the same sequence, the figures for `Cc1ccc(NC(=O)C2(c3ccc4c(c3)OC(F)(F)O4)CC2)nc1-c1c[nH]c(=O)c(N)c1` [Compound 77] were less than 2000 nM and greater than 100%.
Taken in the same sequence, the figures for `Cc1ccc(NC(=O)C2(c3ccc4c(c3)CCO4)CC2)nc1-c1ccc(=O)[nH]c1` [Compound 78] were less than 2000 nM and 50 to 100%.
As for `Cc1ccc(NC(=O)C2(c3ccc4c(c3)OC(F)(F)O4)CC2)nc1-c1ccc(=O)n(C[C@@H](O)CO)c1` [Compound 79], the 50% effective concentration (EC50) is less than 2000 nM and the Emax is greater than 100%.
For the compound `Cc1ccc(NC(=O)C2(c3ccc4c(c3)CCO4)CC2)nc1-c1cc[nH]c(=O)c1` [Compound 80], the EC50 was less than 2000 nM and the Emax was in the range of 50 to 100%.
Taken in the same sequence, the figures for `CCOC(=O)NCCn1cc(-c2nc(NC(=O)C3(c4ccc5c(c4)OC(F)(F)O5)CC3)ccc2C)ccc1=O` [Compound 81] were less than 2000 nM and greater than 100%.
Taken in the same sequence, the figures for `Cc1ccc(NC(=O)C2(c3ccc4c(c3)OC(F)(F)O4)CC2)nc1-c1cc(F)c[nH]c1=O` [Compound 82] were less than 2000 nM and greater than 100%.
Take `Cc1c[nH]c(=O)c(-c2nc(NC(=O)C3(c4ccc5c(c4)CCO5)CC3)ccc2C)c1` [Compound 83]: the concentration giving a half-maximal response (EC50) was less than 2000 nM and the Emax was 50 to 100%.
Turning to `Cc1ccc(NC(=O)C2(c3ccc4c(c3)CCO4)CC2)nc1-c1ccc[nH]c1=O` [Compound 84], the half-maximal effective concentration (EC50) was less than 2000 nM and the Emax lay in the range of 50 to 100%.
Taken in the same sequence, the figures for `Cc1ccc(NC(=O)C2(c3ccc4c(c3)OC(F)(F)O4)CC2)nc1-c1cc(Cl)c[nH]c1=O` [Compound 85] were less than 2000 nM and greater than 100%.
Taken in the same sequence, the figures for `Cc1ccc(NC(=O)C2(c3ccc4c(c3)OC(F)(F)O4)CC2)nc1-c1cc[nH]c(=O)c1Cl` [Compound 86] were less than 2000 nM and greater than 100%.
